Assay results: PubChem BioAssay AID330 (DTP/NCI, 2004)
Several values for one entry are separate records, joined by “and”; a condition that tells them apart may be missing. Equal entries are not always repeated. Toxic doses and inconclusive results are not listed. How the source made its calls: active means survival T/C of 150% or more; inactive means T/C below 125% in these data. Peptide text beside a SMILES is read from it. * marks the point of attachment. Boc = CC(C)(C)OC(=O)*; NHNH2 = NN*

System: P388 leukemia ip, CD2F1 mice, survival T/C
Experiment: NCI In Vivo Anticancer Drug Screen. Data for tumor model P388 Leukemia (intraperitoneal) in CD2F1 (CDF1) mice
Conditions: endpoint: median survival time, higher = longer survival
Outline: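 Mice carrying the transplanted tumor received test compound or vehicle. Survival was recorded in each group, and the value is the treated-group measurement divided by that of the vehicle-treated control group.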

[1] = dose: 60.0 mg/kg/injection, schedule: Q01DX005 (ip), vehicle: Klucel (hydroxypropylcellulose) (HPC)
[2] = dose: 60.0 mg/kg/injection, schedule: Q01DX005 (ip), vehicle: saline with Tween-80
[3] = dose: 120.0 mg/kg/injection, schedule: Q01DX005 (ip), vehicle: saline with Tween-80
[4] = dose: 240.0 mg/kg/injection, schedule: Q01DX005 (ip), vehicle: saline with Tween-80
[5] = dose: 50.0 mg/kg/injection, schedule: Q01DX009 (ip), vehicle: saline
[6] = dose: 100.0 mg/kg/injection, schedule: Q01DX009 (ip), vehicle: saline
[7] = dose: 200.0 mg/kg/injection, schedule: Q01DX009 (ip), vehicle: saline
[8] = dose: 120.0 mg/kg/injection, schedule: Q01DX005 (ip), vehicle: Klucel (hydroxypropylcellulose) (HPC)
[9] = dose: 240.0 mg/kg/injection, schedule: Q01DX005 (ip), vehicle: Klucel (hydroxypropylcellulose) (HPC)
[10] = dose: 50.0 mg/kg/injection, schedule: Q01DX009 (ip), vehicle: saline with Tween-80
[11] = dose: 100.0 mg/kg/injection, schedule: Q01DX009 (ip), vehicle: saline with Tween-80
[12] = dose: 200.0 mg/kg/injection, schedule: Q01DX009 (ip), vehicle: saline with Tween-80
[13] = dose: 50.0 mg/kg/injection, schedule: Q01DX005 (ip), vehicle: Klucel (hydroxypropylcellulose) (HPC)
[14] = dose: 100.0 mg/kg/injection, schedule: Q01DX005 (ip), vehicle: Klucel (hydroxypropylcellulose) (HPC)
[15] = dose: 200.0 mg/kg/injection, schedule: Q01DX005 (ip), vehicle: Klucel (hydroxypropylcellulose) (HPC)
[16] = dose: 50.0 mg/kg/injection, schedule: Q01DX005 (ip), vehicle: saline with Tween-80

Measured: T/C

CSc1nc(N)c(NS(=O)(=O)c2ccc([N+](=O)[O-])cc2)c(=O)[nH]1
inactive: dose: 15.0 mg/kg/injection, schedule: Q01DX005 (ip), vehicle: Klucel (hydroxypropylcellulose) (HPC) 99 % of control | dose: 30.0 mg/kg/injection, schedule: Q01DX005 (ip), vehicle: Klucel (hydroxypropylcellulose) (HPC) 87 % of control | [1] 91 % of control and 93 % of control

O=C(CCCC(=O)Nc1cccc([N+](=O)[O-])c1)CC(=O)c1ccc([N+](=O)[O-])cc1
inactive: [2] 100 % of control | [3] 102 % of control | [4] 103 % of control

CC(=O)Nc1cccc(/C=C/C=C/c2ccc([N+](=O)[O-])cc2)c1
inactive: dose: 37.5 mg/kg/injection, schedule: Q01DX001 (ip), vehicle: saline with Tween-80 100 % of control | dose: 75.0 mg/kg/injection, schedule: Q01DX001 (ip), vehicle: saline with Tween-80 95 % of control | dose: 150.0 mg/kg/injection, schedule: Q01DX001 (ip), vehicle: saline with Tween-80 90 % of control

Cc1cc(OC(=O)Nc2cc([N+](=O)[O-])ccc2C)c(C)cc1I
inactive: dose: 12.5 mg/kg/injection, schedule: Q01DX009 (ip), vehicle: saline 99 % of control | dose: 25.0 mg/kg/injection, schedule: Q01DX009 (ip), vehicle: saline 97 % of control | [5] 100 % of control and 91 % of control | [6] 92 % of control | [7] 100 % of control

COc1ccc2ccc3ccc(OC)c(OC(C)=O)c3c2c1
inactive: [1] 100 % of control | [8] 98 % of control | [9] 91 % of control

COc1ccc(OC(=O)/C=C/c2ccccc2)cc1
inactive: dose: 85.0 mg/kg/injection, schedule: Q04DX002 (ip), vehicle: saline with Tween-80 102 % of control

CC1(C)C(=O)C=C[C@]2(C)[C@H]3CC[C@]4(C)C(=CC[C@H]4c4ccoc4)[C@]3(C)[C@H](O)C[C@@H]12
inactive: dose: 7.81 mg/kg/injection, schedule: Q01DX005 (ip), vehicle: Klucel (hydroxypropylcellulose) (HPC) 98 % of control | dose: 15.63 mg/kg/injection, schedule: Q01DX005 (ip), vehicle: Klucel (hydroxypropylcellulose) (HPC) 98 % of control | dose: 31.25 mg/kg/injection, schedule: Q01DX005 (ip), vehicle: Klucel (hydroxypropylcellulose) (HPC) 95 % of control | dose: 62.5 mg/kg/injection, schedule: Q01DX005 (ip), vehicle: Klucel (hydroxypropylcellulose) (HPC) 95 % of control | dose: 125.0 mg/kg/injection, schedule: Q01DX005 (ip), vehicle: Klucel (hydroxypropylcellulose) (HPC) 93 % of control

S=C(c1c(Cl)cccc1Cl)N1CN2CCCN(C2)C1
inactive: [10] 111 % of control | [11] 98 % of control | [12] 101 % of control

[O-]c1n[n+](Cc2ccc(Cl)cc2)no1
inactive: dose: 100.0 mg/kg/injection, schedule: Q04DX003 (ip), vehicle: Klucel (hydroxypropylcellulose) (HPC) 102 % of control | dose: 200.0 mg/kg/injection, schedule: Q04DX003 (ip), vehicle: Klucel (hydroxypropylcellulose) (HPC) 119 % of control

O=C1CCOCCCOCCC(=O)OCCCO1
inactive: [13] 104 % of control | [14] 101 % of control | [15] 101 % of control

O=C1CS[C@@H]2C(=O)CCCC2C1 (some centres not stated)
inactive: [16] 98 % of control | dose: 100.0 mg/kg/injection, schedule: Q01DX005 (ip), vehicle: saline with Tween-80 98 % of control | dose: 200.0 mg/kg/injection, schedule: Q01DX005 (ip), vehicle: saline with Tween-80 92 % of control

FC(F)(F)C1=C(C(F)(F)F)SP(Cl)(c2ccccc2)(c2ccccc2)S1
inactive: dose: 50.0 mg/kg/injection, schedule: Q04DX003 (ip), vehicle: other 107 % of control | dose: 100.0 mg/kg/injection, schedule: Q04DX003 (ip), vehicle: other 100 % of control | dose: 200.0 mg/kg/injection, schedule: Q04DX003 (ip), vehicle: other 93 % of control

Cc1ncc(C(O)c2ccc(Cl)cc2)n1Cc1ccccc1 (configuration not stated)
inactive: [2] 96 % of control | [3] 104 % of control | [4] 99 % of control

CSC(=N\N=C(/C)c1ccc(Br)cc1)/N=C/N(C)C
inactive: [2] 100 % of control | [3] 102 % of control | [4] 102 % of control

COc1ccc(C(=O)Nc2c(Cl)cccc2Cl)cc1OC
inactive: [2] 94 % of control | [3] 88 % of control

CC1=CC2C(O)(CC3(CO)OC3C3C4C(C)(C)C4(OC(=O)c4ccccc4)C(OC(=O)c4ccccc4)C(C)C32O)C1=O (configuration not stated)
inactive: dose: 50.0 micrograms/kg/injection, schedule: Q01DX005 (ip), vehicle: saline + alcohol 94 % of control | dose: 100.0 micrograms/kg/injection, schedule: Q01DX005 (ip), vehicle: saline + alcohol 97 % of control | dose: 200.0 micrograms/kg/injection, schedule: Q01DX005 (ip), vehicle: saline + alcohol 99 % of control | dose: 400.0 micrograms/kg/injection, schedule: Q01DX005 (ip), vehicle: saline + alcohol 94 % of control | dose: 800.0 micrograms/kg/injection, schedule: Q01DX005 (ip), vehicle: saline + alcohol 105 % of control

CCN(CC)CCSc1nnc(-c2cc(OC)c(OC)c(OC)c2)o1
inactive: dose: 50.0 mg/kg/injection, schedule: Q04DX003 (ip), vehicle: water 100 % of control | dose: 100.0 mg/kg/injection, schedule: Q04DX003 (ip), vehicle: water 103 % of control

Cc1cc(C)n(-c2ccnc(N3CCOCC3)n2)n1
inactive: dose: 100.0 mg/kg/injection, schedule: Q01DX001 (ip), vehicle: saline 100 % of control | dose: 200.0 mg/kg/injection, schedule: Q01DX001 (ip), vehicle: saline 96 % of control | dose: 400.0 mg/kg/injection, schedule: Q01DX001 (ip), vehicle: saline 97 % of control

O=C(Nc1cc2c3ccccc3ccc2c2ccccc12)C(Cl)Cl
inactive: [2] 100 % of control | [3] 100 % of control | [4] 102 % of control

CN1CCN(CN2C(=O)NC(c3ccccc3)(c3ccccc3)C2=O)CC1
inactive: [1] 90 % of control | [8] 107 % of control | [9] 98 % of control

CC(C)CC1N=C(NN=C(CCl)CCl)SP1(=O)NCCCCCCNP1(=O)SC(NN=C(CCl)CCl)=NC1CC(C)C (configuration not stated)
inactive: [1] 100 % of control | [8] 103 % of control | [9] 102 % of control

CCOC(=O)C1=C(C)/C(=C\c2[nH]c(C)c(C(=O)OCC)c2C)N=C1C
inactive: [2] 103 % of control | [3] 94 % of control | [4] 96 % of control

O=c1[nH]c2ccccc2n1C1CCN(CC(O)C2COc3ccccc3O2)CC1 (configuration not stated)
inactive: [10] 94 % of control | [11] 106 % of control | [12] 103 % of control

O=C1CN(Cc2ccccc2)CC(=O)N2Cc3ccccc3CN12
inactive: dose: 12.5 mg/kg/injection, schedule: Q01DX005 (ip), vehicle: saline with Tween-80 98 % of control | dose: 25.0 mg/kg/injection, schedule: Q01DX005 (ip), vehicle: saline with Tween-80 105 % of control | [16] 102 % of control

Oc1c[nH]c(=S)s1
inactive: dose: 12.5 mg/kg/injection, schedule: Q01DX009 (ip), vehicle: other 112 % of control | dose: 25.0 mg/kg/injection, schedule: Q01DX009 (ip), vehicle: other 106 % of control | dose: 50.0 mg/kg/injection, schedule: Q01DX009 (ip), vehicle: other 111 % of control | dose: 100.0 mg/kg/injection, schedule: Q01DX009 (ip), vehicle: other 102 % of control | dose: 200.0 mg/kg/injection, schedule: Q01DX009 (ip), vehicle: other 117 % of control

O=Cc1cc(-c2ccccc2)n(-c2ccccc2)c1-c1ccccc1
inactive: [2] 96 % of control | [3] 98 % of control | [4] 97 % of control

O=c1[nH]c(=S)cnn1C1OC(CO)C(O)C1O (configuration not stated)
inactive: [5] 106 % of control | [6] 94 % of control | [7] 101 % of control

CC(C)(C)OC(=O)NC(Cc1ccccc1)C(=O)NC(CO)C(=O)NN (stereo not drawn) (Boc-Phe-Ser-NHNH2; configuration not given here)
inactive: [13] 97 % of control | [14] 95 % of control | [15] 105 % of control

c1cnc2c(c1)ccc1ncccc12
inactive: [13] 104 % of control | [14] 95 % of control | [15] 97 % of control

CN1N=C(C2=NN(C)C(=O)N(C)N2)NN(C)C1=O
inactive: dose: 12.5 mg/kg/injection, schedule: Q01DX005 (ip), vehicle: Klucel (hydroxypropylcellulose) (HPC) 101 % of control | dose: 25.0 mg/kg/injection, schedule: Q01DX005 (ip), vehicle: Klucel (hydroxypropylcellulose) (HPC) 97 % of control | [13] 104 % of control and 105 % of control

COC1OC(C(C)O)C2OC(C)(C)OC12 (configuration not stated)
inactive: dose: 30.0 mg/kg/injection, schedule: Q01DX005 (ip), vehicle: saline with Tween-80 101 % of control | [2] 104 % of control and 106 % of control | [3] 108 % of control | [4] 106 % of control and 110 % of control
